# Source: ChEMBL document CHEMBL5390211, “Discovery of N-Arylsulfonyl-Indole-2-Carboxamide Derivatives as Galectin-3 and Galectin-8 C-Terminal Domain Inhibitors” (ACS Med Chem Lett, 2023)
# Legend:
# Galectin-8 [1] = target: T1, Galectin-8 (Homo sapiens, UniProt O00214); experiment: Binding affinity to C-terminal domain human Gal-8 expressed in Escherichia coli BL21 (DE3) cells by competitive fluorescence polarization assay
# T1 sequence (O00214 whole entry): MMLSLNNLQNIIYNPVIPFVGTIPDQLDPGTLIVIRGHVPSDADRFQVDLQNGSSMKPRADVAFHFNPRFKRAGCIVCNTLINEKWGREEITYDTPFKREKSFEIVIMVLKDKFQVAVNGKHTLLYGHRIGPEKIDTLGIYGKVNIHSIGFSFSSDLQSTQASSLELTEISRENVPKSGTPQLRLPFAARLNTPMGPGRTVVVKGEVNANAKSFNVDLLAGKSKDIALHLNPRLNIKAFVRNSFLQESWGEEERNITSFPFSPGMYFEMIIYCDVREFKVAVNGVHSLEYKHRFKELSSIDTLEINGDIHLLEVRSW
# Galectin-3 [2] = target: T2, Galectin-3 (Homo sapiens, UniProt P17931); experiment: Binding affinity to human Gal-3 expressed in Escherichia coli BL21 (DE3) cells by competitive fluorescence polarization assay
# Galectin-3 [3] = target: T2, Galectin-3
# Description: Binding affinity to human Gal-3 expressed in Escherichia coli BL21 (DE3) cells assessed as change in gibbs free energy by isothermal titration calorimetry analysis
# Galectin-8 [4] = target: T1, Galectin-8; experiment: Binding affinity to C-terminal domain human Gal-8 expressed in Escherichia coli BL21 (DE3) cells by isothermal titration calorimetry analysis
# [5] = target: T3, Galectin-8 (Homo sapiens) (UniProt O00214)
# T3 sequence (whole entry): T1 sequence (O00214 whole entry)
# Description: Binding affinity to C-terminal domain human Gal-8 expressed in Escherichia coli BL21 (DE3) cells assessed as change in gibbs free energy by isothermal titration calorimetry analysis
# [6] = Cytotoxicity against human MRC5 cells assessed as cell viability at 10 uM incubated for 24 hrs by MTT assay relative to control; assay type: toxicity, cell-based; settings: read-out: Activity
# Galectin-3 [7] = target: T2, Galectin-3; remark: listed apart in the source
# Description: Binding affinity to human Gal-3 expressed in Escherichia coli BL21 (DE3) cells assessed as change in entropy by isothermal titration calorimetry analysis
# [8] = target: T3, Galectin-8 (Homo sapiens); remark: listed apart in the source
# Description: Binding affinity to C-terminal domain human Gal-8 expressed in Escherichia coli BL21 (DE3) cells assessed as change in enthalpy by isothermal titration calorimetry analysis
# Galectin-3 [9] = target: T2, Galectin-3; experiment: Binding affinity to human Gal-3 expressed in Escherichia coli BL21 (DE3) cells by isothermal titration calorimetry analysis
# Galectin-1 = Galectin-1 (Homo sapiens, UniProt P09382); experiment: Binding affinity to human Gal-1 expressed in Escherichia coli BL21 (DE3) by competitive fluorescence polarization assay
# [10] = Cytotoxicity against human MRC5 cells assessed as cell viability at 1 uM incubated for 24 hrs by MTT assay relative to control; assay type: toxicity, cell-based; settings: read-out: Activity
# [11] = target: T3, Galectin-8 (Homo sapiens); remark: listed apart in the source
# Description: Binding affinity to C-terminal domain human Gal-8 expressed in Escherichia coli BL21 (DE3) cells assessed as change in entropy by isothermal titration calorimetry analysis
# Galectin-3 [12] = target: T2, Galectin-3; remark: listed apart in the source
# Description: Binding affinity to human Gal-3 expressed in Escherichia coli BL21 (DE3) cells assessed as change in enthalpy by isothermal titration calorimetry analysis
# MRC5 = experiment: Inhibition of cell migration in human MRC5 cells assessed as reduction in would closure at 1 uM incubated for 48 hrs by Giemsa staining based microscopic analysis relative to control; assay type: toxicity
# Galectin-8 [13] = target: T1, Galectin-8; experiment: Binding affinity to N-terminal domain human Gal-8 expressed in Escherichia coli BL21 (DE3) cells by competitive fluorescence polarization assay
# Galectin-8 [14] = target: T1, Galectin-8; experiment: Binding affinity to N-terminal domain human Gal-8 expressed in Escherichia coli BL21 (DE3) cells by isothermal titration calorimetry analysis
# Galectin-8 [15] = target: T1, Galectin-8; experiment: Binding affinity to N-terminal domain human Gal-8 expressed in Escherichia coli BL21star (DE3) cells by competitive fluorescence polarization assay
# Galectin-1, sequence (P09382 whole entry): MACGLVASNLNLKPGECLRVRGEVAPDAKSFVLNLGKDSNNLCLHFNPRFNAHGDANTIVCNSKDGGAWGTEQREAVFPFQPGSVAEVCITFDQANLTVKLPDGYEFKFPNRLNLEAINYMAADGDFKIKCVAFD
# T2 sequence (P17931 whole entry): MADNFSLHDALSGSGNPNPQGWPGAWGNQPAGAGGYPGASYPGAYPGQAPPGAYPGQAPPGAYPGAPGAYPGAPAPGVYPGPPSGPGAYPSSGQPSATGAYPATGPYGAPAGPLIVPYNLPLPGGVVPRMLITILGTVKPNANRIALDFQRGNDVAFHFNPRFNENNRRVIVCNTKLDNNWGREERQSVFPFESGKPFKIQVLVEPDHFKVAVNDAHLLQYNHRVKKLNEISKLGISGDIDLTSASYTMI
Molecule,Kd (Galectin-8 [1]),Kd (Galectin-3 [2]),further results
O=C(NS(=O)(=O)c1ccc(Cl)cc1Cl)c1cc2cc(Oc3ccc(F)cc3)ccc2[nH]1,57 µM,121 µM,
O=C(NS(=O)(=O)c1cc(F)c(F)c(F)c1)c1cc2cc(Oc3ccc(Cl)c(Cl)c3)ccc2[nH]1,14.9 µM,33 µM,
O=C(O)c1ccc(S(=O)(=O)NC(=O)c2cc3cc(Oc4ccc(Cl)c(Cl)c4)ccc3[nH]2)cc1,73 µM,119 µM,
O=C(NS(=O)(=O)c1ccccn1)c1cc2cc(Oc3ccc(Cl)c(Cl)c3)ccc2[nH]1,41.8 µM,210 µM,
O=C(NS(=O)(=O)c1cc(Cl)c(Cl)s1)c1cc2cc(Oc3ccc(Cl)cc3Cl)ccc2[nH]1,19.3 µM,22.7 µM,
O=C(NS(=O)(=O)c1ccc(OC(F)(F)F)cc1)c1cc2cc(Oc3ccc(Cl)c(Cl)c3)ccc2[nH]1,18.5 µM,15.5 µM,
O=C(NS(=O)(=O)c1cc(Cl)c(Cl)s1)c1cc2cc(Oc3cccc(Cl)c3Br)ccc2[nH]1,19.2 µM,27.3 µM,
O=C(NS(=O)(=O)c1cc(Cl)sc1Cl)c1cc2cc(Oc3ccc(Cl)c(Cl)c3)ccc2[nH]1,17.3 µM,21.9 µM,
O=C(NS(=O)(=O)c1ccc2ncsc2c1)c1cc2cc(Oc3ccc(Cl)c(Cl)c3)ccc2[nH]1,8.3 µM,7.6 µM,"deltaG (Galectin-3 [3]): -7.35 kcal/mol; Kd (Galectin-8 [4]): 6.04 µM; deltaG [5]: -7.12 kcal/mol; viability at 24 h, 10 µM [6]: 66%; -TdeltaS (Galectin-3 [7]): -8.63 kcal/mol; deltaH [8]: 4.91 kcal/mol; Kd (Galectin-3 [9]): 4.12 µM; Kd (Galectin-1): 107 µM; viability at 24 h, 1 µM [10]: 95%; -TdeltaS [11]: -12 kcal/mol; deltaH (Galectin-3 [12]): 1.28 kcal/mol; inhibition at 1 µM (MRC5): 14%; Kd (Galectin-8 [13]): 210 µM"
O=C(NS(=O)(=O)Cc1noc2ccccc12)c1cc2cc(Oc3ccc(Cl)c(Cl)c3)ccc2[nH]1,24.6 µM,321 µM,
CCOC(=O)c1ccc(S(=O)(=O)NC(=O)c2cc3cc(Oc4ccc(Cl)c(Cl)c4)ccc3n2C)cc1,16.1 µM,36.5 µM,Kd (Galectin-1): > 500 µM; Kd (Galectin-8 [13]): > 300 µM
O=C(NS(=O)(=O)c1cc(Cl)c(Cl)s1)c1cc2cc(Oc3ccc(Cl)cc3Br)ccc2[nH]1,14.1 µM,24.9 µM,
O=C(NS(=O)(=O)c1cc(Cl)c(Cl)s1)c1cc2cc(Oc3ccc(Cl)c(Cl)c3)ccc2o1,9.6 µM,30.5 µM,Kd (Galectin-1): > 500 µM
O=C(NS(=O)(=O)c1ccc(Cl)cc1Cl)c1cc2cc(Oc3ccc(Cl)c(Cl)c3)ccc2[nH]1,9.4 µM,16 µM,Kd (Galectin-1): 43.7 µM; Kd (Galectin-8 [13]): > 300 µM
"LACTOSE, ANHYDROUS",,,Kd (Galectin-8 [4]): 93 µM; Kd (Galectin-8 [14]): 893 µM
O=C(NS(=O)(=O)c1ccc([N+](=O)[O-])cc1)c1cc2cc(Oc3ccc(Cl)c(Cl)c3)ccc2[nH]1,19.2 µM,30 µM,
O=C(NS(=O)(=O)c1ccc(Cl)cc1)c1cc2cc(Oc3ccc(Cl)c(Cl)c3)ccc2[nH]1,18.1 µM,80.9 µM,
CCOC(=O)c1ccc(S(=O)(=O)NC(=O)c2cc3cc(Oc4ccc(Cl)c(Cl)c4)ccc3[nH]2)cc1,17.5 µM,17.1 µM,Kd (Galectin-1): 118 µM; Kd (Galectin-8 [13]): 228 µM
Cc1nc(Cl)sc1S(=O)(=O)NC(=O)c1cc2cc(Oc3ccc(Cl)c(Cl)c3)ccc2[nH]1,20.3 µM,31 µM,
O=C(NS(=O)(=O)c1ccc(Cl)cc1Cl)c1cc2c(Oc3ccc(F)cc3)cccc2[nH]1,253 µM,224 µM,

Molecule,Kd (Galectin-8 [1]),Kd (Galectin-3 [2]),further results
O=C(NS(=O)(=O)c1cc(Cl)c(Cl)s1)c1cc2cc(Oc3ccc(Cl)c(Cl)c3)ccc2[nH]1,10.9 µM,20 µM,Kd (Galectin-1): 70.8 µM; Kd (Galectin-8 [13]): > 300 µM
O=C(NS(=O)(=O)c1cc(Cl)c(Cl)s1)c1cc2cc(Oc3ccc(Br)cc3F)ccc2[nH]1,7.3 µM,27.1 µM,
O=C(NS(=O)(=O)c1ccccc1)c1cc2cc(Oc3ccc(Cl)c(Cl)c3)ccc2[nH]1,18.7 µM,37.4 µM,
O=C(NS(=O)(=O)c1cc(Cl)c(Cl)s1)c1cc2cc(Oc3ccc(Br)c(Cl)c3)ccc2[nH]1,9.4 µM,23.7 µM,
CC(C)c1ccc(Oc2ccc3cc(C(=O)NS(=O)(=O)c4ccc(Cl)cc4Cl)[nH]c3c2)cc1,,784 µM,
CCOC(=O)c1ccc(S(=O)(=O)N(C)C(=O)c2cc3cc(Oc4ccc(Cl)c(Cl)c4)ccc3n2C)cc1,,363 µM,
O=C(NS(=O)(=O)c1cc(Cl)c(Cl)s1)c1cc2cc(Oc3ccc(Br)c(F)c3)ccc2[nH]1,8 µM,14.3 µM,
O=C(NS(=O)(=O)c1ccn(Cl)n1)c1cc2cc(Oc3ccc(Cl)c(Cl)c3)ccc2[nH]1,57 µM,76.9 µM,
O=C(NS(=O)(=O)c1ccc2c(c1)OCC2)c1cc2cc(Oc3ccc(Cl)c(Cl)c3)ccc2[nH]1,15.5 µM,20.1 µM,
Cc1noc(C)c1S(=O)(=O)NC(=O)c1cc2cc(Oc3ccc(Cl)c(Cl)c3)ccc2[nH]1,22.9 µM,74.2 µM,
O=C(NS(=O)(=O)c1csc2ccccc12)c1cc2cc(Oc3ccc(Cl)c(Cl)c3)ccc2[nH]1,8.2 µM,10.6 µM,
OC[C@H]1O[C@@H](S[C@@H]2O[C@H](CO)[C@H](O)[C@H](n3cc(-c4cccc(F)c4)nn3)[C@H]2O)[C@H](O)[C@@H](n2cc(-c3cccc(F)c3)nn2)[C@H]1O [OLITIGALTIN],21.6 µM,,inhibition at 1 µM (MRC5): 49%; Kd (Galectin-8 [15]): 86 µM; Kd (Galectin-8 [13]): 281 µM
COc1cccc(S(=O)(=O)NC(=O)c2cc3cc(Oc4ccc(Cl)c(Cl)c4)ccc3[nH]2)c1,17.7 µM,39.2 µM,
O=C(NS(=O)(=O)c1sccc1Cc1ccccc1)c1cc2cc(Oc3ccc(Cl)c(Cl)c3)ccc2[nH]1,12.5 µM,22.7 µM,"deltaG (Galectin-3 [3]): -6.68 kcal/mol; Kd (Galectin-8 [4]): 2.06 µM; deltaG [5]: -7.76 kcal/mol; viability at 24 h, 10 µM [6]: 99%; -TdeltaS (Galectin-3 [7]): -1.94 kcal/mol; deltaH [8]: -2.29 kcal/mol; Kd (Galectin-3 [9]): 12.8 µM; Kd (Galectin-1): 138 µM; viability at 24 h, 1 µM [10]: 97%; -TdeltaS [11]: -5.47 kcal/mol; deltaH (Galectin-3 [12]): -4.74 kcal/mol; inhibition at 1 µM (MRC5): 21%; Kd (Galectin-8 [13]): 203 µM"
O=C(NS(=O)(=O)c1ccccc1Cl)c1cc2cc(Oc3ccc(Cl)c(Cl)c3)ccc2[nH]1,16.4 µM,24.9 µM,
O=C(NS(=O)(=O)c1ccc2oc(=O)ccc2c1)c1cc2cc(Oc3ccc(Cl)c(Cl)c3)ccc2[nH]1,18.7 µM,10 µM,deltaG (Galectin-3 [3]): -6.77 kcal/mol; Kd (Galectin-8 [4]): 2.01 µM; deltaG [5]: -7.77 kcal/mol; -TdeltaS (Galectin-3 [7]): -2.94 kcal/mol; deltaH [8]: -1.01 kcal/mol; Kd (Galectin-3 [9]): 11 µM; Kd (Galectin-1): 86.9 µM; -TdeltaS [11]: -6.76 kcal/mol; deltaH (Galectin-3 [12]): -3.82 kcal/mol; Kd (Galectin-8 [13]): > 300 µM
O=C(NS(=O)(=O)c1cc(Cl)c(Cl)s1)c1cc2cc(Oc3ccc(Cl)cn3)ccc2[nH]1,> 300 µM,212 µM,
O=C(NS(=O)(=O)c1ccc(F)cc1S(=O)(=O)C(F)(F)F)c1cc2cc(Oc3ccc(Cl)c(Cl)c3)ccc2[nH]1,16 µM,32.3 µM,
O=C(NS(=O)(=O)c1ccc(Cl)cc1Cl)c1cc2ccc(Oc3ccc(F)cc3)cc2[nH]1,76.2 µM,303 µM,
O=C(NS(=O)(=O)c1sc(Cl)cc1Cc1ccccc1)c1cc2cc(Oc3ccc(Cl)c(Cl)c3)ccc2[nH]1,5.6 µM,35.9 µM,Kd (Galectin-1): 96.1 µM
